We go through two compounds from publication PMC9492542, “Brain-restricted mTOR inhibition with binary pharmacology” (Nature, 2022).

“And” between values parts separate entries of the source, which are not always exact repeats. Equal values may be shown once.

Assay [1] addresses T1, FKBP12 (Homo sapiens, UniProt P62942).
T1 construct: His-tag (HRV 3C cleavable) (cleaved yes); made in house; host or cells: Escherichia coli BL21(DE3)
Kind of assay: Competition fluorescence polarization assay with FITC-rapamycin tracer. The class given is binding. (In general: Fluorescence polarisation rises when a labelled molecule tumbles more slowly, as on binding a larger partner.)
Method: Compound binding affinity was determined using a competition fluorescence polarization assay. […] The assay buffer was 20 mM HEPES pH 7.5 and 0.01% Triton X-100. […] Data were fitted to a three-parameter sigmoidal curve to derive IC50 values. Ki of the compounds were calculated using a tool provided by S. Wang’s laboratory (http://www.umich.edu/~shaomengwanglab/software/calc_ki/index.html). Data were plotted in GraphPad Prism 9.0.

The test system of assay [2] is NFAT. Kind of assay: NFAT activation assay (Jurkat-Lucia NFAT luciferase reporter, PMA/ionomycin). The class given is cell-based. On the procedure:
Jurkat-Lucia NFAT cells were resuspended to 2 × 10^6 cells per ml in fresh growth medium and dispensed in 96-well tissue culture plates (Corning 3904; 180 µl per well). DMSO solutions of test compounds at 100× the test concentrations were added and the cells were incubated for 4 h at 37 °C. A 10× stimulation solution containing phorbol myristate acetate (100 ng ml^–1) and ionomycin (10 µg ml^–1) were added to each well (20 µl per well) except for the negative control wells, which were supplemented with 20 µl medium. Cells were incubated at 37 °C for 12 h. Cells (20 µl per well) were transferred into a white opaque 96-well plate (Corning 3912). TECAN Spark 20M plate reader equipped with an auto-injection system was primed with Lucia luciferase substrate solution and set with the following parameters: 50 µl of injection volume, end-point measurement with a 4-s delay time and 0.1-s integration time. Luciferase activity was measured with the settings above and normalized to DMSO-treated, stimulated cells. Data were plotted in GraphPad Prism 9.0.
In general terms: A reporter such as luciferase makes a cellular process visible.

Assay [3] has as its system mTOR. Kind of assay: Immunoblot analysis of mTOR signalling (p-S6, p-4EBP1) in MCF7 cells, incl. screen for blocking of rapamycin/RapaLink-1. Particulars: 10 nM RapaLink-1 + 10 µM blocker, immunoblot. (In general: Immunoblotting shows a protein as a band on a membrane.)

T1 sequence (P62942 whole entry): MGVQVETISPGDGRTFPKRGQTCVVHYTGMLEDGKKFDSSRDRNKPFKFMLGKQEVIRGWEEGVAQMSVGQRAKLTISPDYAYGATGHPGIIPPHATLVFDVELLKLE

For the compound `C=CC[C@@H]1/C=C(\C)C[C@H](C)C[C@H](OC)[C@H]2O[C@@](O)(C(=O)C(=O)N3CCCC[C@H]3C(=O)O[C@H](/C(C)=C/[C@@H]3CC[C@@H](O)[C@H](OC)C3)[C@H](C)[C@@H](O)CC1=O)[C@H](C)C[C@@H]2OC` [FK506], the “fluorescence polarization (competition, raw)” value in assay [1] (0.0976562 nM compound) is 108; in assay [1] (0.195312 nM compound), 110 and 109; in assay [1] (0.390625 nM compound) it was 108; in assay [1] (0.78125 nM compound), 107 and 103; in assay [1] (1.5625 nM compound), 104 and 103; in assay [1] (3.125 nM compound), 92 and 96. Further, the “fluorescence polarization (competition, raw)” value in assay [1] (6.25 nM compound) was 75 and 72; in assay [1] (12.5 nM compound), 66 and 60; in assay [1] (25 nM compound), 57 and 55; in assay [1] (50 nM compound), 53 and 55; in assay [1] (100 nM compound), 46 and 51. Also, the “NFAT luciferase activity, normalized to DMSO-treated stimulated cells” value in assay [2] (0.00512 nM) was 103.4 and 90.3 and 99.2; in assay [2] (0.0256 nM) it was 93.6 and 87.2 and 91.4; in assay [2] (0.128 nM), 35.5 and 35.2 and 38.5; in assay [2] (0.64 nM), 0.2; in assay [2] (16 nM), 0.1; in assay [2] (80 nM) it was 0.1 and 0.2. In addition, the “NFAT luciferase activity, normalized to DMSO-treated stimulated cells” value in assay [2] (400 nM) is 0.1 and 0.2; in assay [2] (2000 nM) it was 0.2; in assay [2] (10000 nM) it was 0.2. For the same compound, the IC50 (usually the point on the concentration scale where inhibition reaches its midpoint) in assay [2] (Homo sapiens, Jurkat NFAT luciferase, PMA + ionomycin) stood at 0.094 ± 0.008 nM.

Regarding `CCON=C1C[C@H](O)[C@@H](C)[C@@H](/C(C)=C/[C@@H]2CC[C@@H](O)[C@H](OC)C2)OC(=O)[C@@H]2CCCCN2C(=O)C(=O)[C@]2(O)O[C@H]([C@@H](OC)C[C@@H](C)C/C(C)=C/[C@H]1CCCc1cccc[n+]1[O-])[C@@H](OC)C[C@H]2C` [RapaBlock ethyl oxime], affinity in assay [1] was put at a Ki of 360 nM. Further, the “blocking of mTOR inhibition by RapaLink-1 in cells” value in assay [3] was “less potent at blocking RapaLink-1”; in assay [3] (listed as RapaBlock-Oxime), “much less effective at blocking the inhibition”.
